Where two headings read alike, the source gives them in different places.
Assays:
mouse dermal fibroblasts = assay: Ki-67 proliferation of mouse dermal fibroblasts; type: cell-based; details: A10 0.019-10 uM
Protocol: Using a protocol similar to as described in Example 1, β-cells or mouse dermal fibroblasts were treated with 10 uM, 5 uM, 2.5 uM, 1.25 um, 0.625 uM, 0.3125 uM, 0.156 uM, 0.078 uM, 0.04 uM, or 0.019 uM of A10.

[1] = tested on: β-cells (dispersed rat islet cells); assay: primary islet β-cell replication assay (PDX-1/ki-67 co-staining, automated imaging); type: cell-based
Protocol: Rat islets were isolated as previously described in Gotoh M, Maki T, Kiyoizumi T, Satomi S, Monaco A P: An improved method for isolation of mouse pancreatic islets. Transplantation 40:437-438, 1985, contents of which are herein incorporated by reference in their entirety. Isolated islets were cultured overnight in a tissue culture incubator. The following morning, islets were trypsinized into cellular clusters of 1-3 cells, re-suspended in islet media (Mediatech 99-786-CV; 10% FBS serum (Valley Biomedial BS3033); 8.3 mM Glucose (Sigma G7528); 1× Penicillin/Streptomycin (Invitrogen 15070-063); 1× Glutamax (Invitrogen 35050-079)) and plated into the wells of a 96-well plate (Sigma CLS3904) that had been coated with 804G (a rat bladder carcinoma cell line) conditioned media. The cellular plating density was 60 k cells/well and greater than 95% viability was confirmed at the time of plating. […] For screening, compounds were tested at 1 uM concentration in duplicate. After 24-hours of compound treatment, cells were fixed with fresh 4% PFA (Electron Microscopy Services 15710) for 20 minutes and washed with PBS (VWR 45000-446). Antigen retrieval was performed by heating the cells to 90 degrees Celsius in 0.1 mM EDTA (Ambion AM9260G) in PBS. Cells were then washed and permeabalized with PBS/0.3% Triton X-100 (J.T.Baker X198-07) for 15 minutes. Immunocytochemical staining was then performed as follows. Antigen blocking was performed with 5% normal donkey serum (Jackson ImmunoResearch 017-000-121) in PBS for an hour. Staining was performed by overnight incubation with primary antibody at 4 degrees Celsius. For the primary screen, PDX-1 antibody (R&D AF2419) was used to reveal beta-cells and ki-67 antibody (BD Bioscience 556003) to visualize proliferating cells. Without wishing to be bound by theory, the failure of prior beta-cell replication screens is primarily a consequence of using a cytoplasmic marker (Insulin) as the β-cell identifier. The use of a cytoplasmic marker prevents accurate attribution of nuclear replication to a specific cell identity i.e., in dense culture it is impossible to attribute a cytoplasm to a specific nucleus given the proximity to multiple nuclei. Additional Immunohistochemistry antibodies included Phosphohistone 3 (Millipore 06-570), Insulin (Dako A0564), Glucagon (Millipore 4031-01F) and Vimentin (Millipore ab5733). For western blotting anti-bodies included ADK (Abcam ab38010, ab64825) and RAN (BD Bioscience 610340) as a loading control.
Once compound-treated islet cells were stained, β-cell replication was assessed via automated image acquisition and analysis using a Cellomics ArrayScanVTI. The acquisition thresholds/parameters were established such that the computer-based calls of replication events were consistent with human-based calls. The parameters used were directed at the identification of (1) PDX-1+ cells and (2) ki-67 positive staining within the PDX-1 positive area. The algorithm was a three step process. First the nuclear area was predicted by the software based upon the expected PDX-1 staining pattern. Second PDX-1 positive cells (selected objects) were counted based upon the average staining intensity within the predicted nuclear area (Note: total signal intensity was essentially equal in quality but was not typically used). Third, the number of PDX-1 positive cells (selected objects) that simultaneously were Ki-67 positive was determined by determining the average fluorescence intensity of ki-67 staining within the predicted nuclear area (again, total intensity was also occasionally used with equal efficacy). The specific thresholds (fluorescence intensities) varied from experiment to experiment. In general, the basal replication rate was set at roughly 1% i.e., the algorithm was varied until 1% of DMSO treated PDX+ cells were reported to be double positive for PDX-1 and ki67. […]

β-cells = assay: quantification of β-cell number (PDX-1+ cell count); type: cell-based, rat; details: day 6 (144 h), 5-IT 2 μM, 15 mM glucose; control wells 20%
Protocol: To quantify the number of β-cells at 0 h, 96 h and 144 h of culture, cells were plated in 96-well plates as above in the presence of vehicle only or 5-IT and 15 mM glucose; final DMSO dilution was 1:1000 in all wells. Time Oh was after cells had been allowed 48 h to adhere. Each condition was represented by 16 separate wells per plate to accommodate small fluctuations in plating density. Media changes were performed every 48 h. Cells were fixed at the appropriate time point and stored to be stained simultaneously for PDX-1. Automated cell counting was performed using the Cellomics ArrayScanVTI which identified PDX-1^+ cells.

## Nc1ncnc2c1c(I)cn2[C@@H]1O[C@H](CO)[C@@H](O)[C@H]1O [A10, 5-iodotubercidin]
Mouse dermal fibroblasts
  % Ki-67 positive mouse dermal fibroblasts: did not change
[1]; 1 uM, 24 hours
  induction of β-cell replication in the screening assay: 2.3 fold
[1]; 5-IT 2 μM plus high glucose
  induction of the replication rate above the base-line rate, combination with high glucose: 5 fold
[1]; 24 h, 5-IT 2 μM plus GLP-1 or Ex-4
  β-cell replication effect of addition of 5-IT to the GLP-1R agonists: ~4 fold
[1]; 24 h, 5-IT 2 μM, GLP-1 and Ex-4 20 nM and 4 nM, normalized to DMSO
  increase of β-cell replication: ~2.5 fold
[1]; A10 2 μM, 0-25 mM glucose
  effect of glucose concentration on % beta-cell replication in treated samples: little effect
[1]; A10 2 μM, 0.2%, 2.0% or 20% serum
  % Ki-67 positive cells versus serum concentration: increased with increasing serum concentration
[1]; A10 0.019-10 uM, B8 0.23-30 uM
  % of Ki-67 positive β-cells (PDX-1 and Ki-67 positive cells), dose curve: increase in a dose dependent manner
[1]; FIG. 13c dose-response curves, read-out: EC50, β-cell proliferation in rat islet cultures
  EC50: 4.7 µM
[1]; dose curves FIG. 2a (A10) and FIG. 3 (B8), Ki-67 positive β-cells, read-out: EC50 for β-cell proliferation
  EC50: 0.47 µM
Murine hepatocytes
  tolerability by cultured hepatocytes: not well tolerated
β-cells
  increase in number of β-cells compared to time 0: 40%
